# Assay results published in patent US9751851B2, “Molecules and compositions that inhibit gram negative bacteria and their uses” (THE TRUSTEES OF PRINCETON UNIVERSITY, priority 2013, dated 2017).
# “Also recorded” adds a separate entry of the source.
# Assays:
# [1] = system: A549 human lung cells infected with P. aeruginosa PA14; experiment: A549 human lung cell infection (propidium iodide uptake); type: cell-based; conditions: wild-type and lasR mutant strains; 100 μM compound
# Procedure: Methods. Human A549 cells were grown in CellStar tissue culture flasks. Prior to infection, the A549 cells were treated with trypsin-EDTA (CellGro), split, counted, and aliquotted into 96 well plates at 20,000 mammalian cells/well (cell counts were estimated using Trypan Blue (CellGro) exclusion). Cells were grown for 20 hr at 37° C. in DMEM (Invitrogen). Cells were washed 3× with warm PBS (Gibco). 100 μL of “master mix” was added to each well for each condition. Master mix contained 1 mL pre-warmed-PBS, 5 μL of 2 mg/mL propidium iodide (Bioprobes), 1 μL of a 100 mM inhibitor stock or DMSO, and 10 μL of OD600=2 P. aeruginosa PA14 grown in the presence of mBTL or DMSO. Infections were monitored using an EnVision plate reader every 2 hr with the RFP filter supplied by GE.
# [2] = system: wild-type P. aeruginosa PA14; experiment: microbe, parasite or virus in culture; type: cell-based; conditions: for inhibition of pyocyanin production (in words): wild-type P. aeruginosa PA14, end point assays at 100 μM; for Efficacy (%): Table 3, reduction of pyocyanin vs WT P. aeruginosa PA14: 0% = WT level, 100% = background medium
# Procedure: (§1) Methods. The oxidized form of pyocyanin imparts a green color to P. aeruginosa cultures, making the production of pyocyanin convenient to monitor by UV/Vis absorbance. Overnight P. aeruginosa cultures were subcultured into 5 mL fresh medium at 1:1000 dilution. Synthetic compounds were assayed at 100 μM for end point assays and at concentrations ranging from 200 nM to 200 μM for titrations following 17 hr of aerobic growth with shaking at 37° C. Cells were separated from culture fluids via centrifugation at 13,000 rpm for 15 min. Culture fluids were passed through 0.22 μm syringe driven filters (Millipore). Cell-free culture fluids were analyzed for pyocyanin using wavelength scans on a Beckman Coulter DU-800 spectrophotometer from 200 nm to 800 nm 695 nm was chosen for graphical representation. Titration data were fit with a variable-slope sigmoidal dose-response curve using GraphPad Prism to determine the IC50 values.
# The compounds of the first library were assayed in wild-type (WT) P. aeruginosa PA14. Pyocyanin was used as a read-out for quorum sensing activity based on its absorbance at 695 nm. The efficacy of the compounds at reducing pyocyanin levels was calculated with respect to WT levels of pyocyanin, where WT levels of pyocyanin would lead to a 0% efficacy, and an absorbance equal to the background medium would lead to a 100% efficacy. Agonists that increase pyocyanin production have negative efficacy values.
# RhlR = target: T1, RhlR (Pseudomonas aeruginosa, UniProt P54292); experiment: RhlR-GFP assay (rhlA-gfp reporter in recombinant E. coli); type: cell-based, P. aeruginosa
# T1 construct: expressed in transfected cells; host or cells: E. coli BL21-Gold (DE3) carrying pET23b-rhlR
# T1 sequence (P54292 whole entry): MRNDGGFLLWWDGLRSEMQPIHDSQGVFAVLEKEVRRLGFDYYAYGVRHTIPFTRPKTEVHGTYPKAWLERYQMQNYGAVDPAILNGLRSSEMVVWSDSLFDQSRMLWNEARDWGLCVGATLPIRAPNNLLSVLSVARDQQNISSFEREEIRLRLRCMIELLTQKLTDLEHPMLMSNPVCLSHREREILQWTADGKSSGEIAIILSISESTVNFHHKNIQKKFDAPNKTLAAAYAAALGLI
# Procedure: (§2) Methods. The LasR-GFP assays were performed in E. coli strain BL21 DE3 Gold (Agilent) carrying pET23b (Novagen) containing lasR (maintained with 100 μg/mL ampicillin) and carrying plasmid pEVS141 (31) containing the rsaL promoter driving expression of gfp (maintained with […] of kanamycin.) The RhlR-GFP assays were performed in E. coli strain BL21 DE3 Gold (Agilent) carrying pET23b (Novagen) containing rhlR (maintained with 100 μg/mL ampicillin) and carrying plasmid pEVS141 containing the rhlA promoter driving expression of gfp (maintained with 50 μg/mL of kanamycin.) These E. coli strains were grown overnight and subcultured into fresh medium with appropriate antibiotics at a 1:100 dilution and grown shaking for 8 hr at 37° C. for the LasR-GFP strain and 12 hr for the RhlR-GFP construct. 50 nM 3OC12-HSL or 20 μM C4-HSL was added to the LasR-GFP and RhlR-GFP preparations, respectively. Compounds were tested at 1 mM for antagonism and at 100 nM or 20 μM for agonism. These concentrations were chosen for agonism studies to match the concentrations of autoinducers used in the experiments. For antagonism studies, the EC95 concentration was used for each receptor. GFP was measured on an Envision plate reader.
# (§3) The LasR-GFP assays were performed in E. coli strain BL21 DE3 Gold (Agilent) carrying pET23b (Novagen) containing lasR (maintained with 100 μg/mL ampicillin) and carrying plasmid pEVS141 (31) containing the rsaL promoter driving expression of gfp (maintained with 50 μg/mL of kanamycin.) The RhlR-GFP assays were performed in E. coli strain BL21 DE3 Gold (Agilent) carrying pET23b (Novagen) containing rhlR (maintained with 100 μg/mL ampicillin) and carrying plasmid pEVS141 (31) containing the rhlA promoter driving expression of gfp (maintained with 50 μg/mL of kanamycin.) These E. coli strains were grown overnight and subcultured into fresh medium with appropriate antibiotics at a 1:100 dilution and grown shaking for 8 hr at 37° C. for the LasR-GFP strain and 12 hr for the RhlR-GFP construct. 50 nM 3OC12-HSL or 20 μM C4-HSL was added to the LasR-GFP and RhlR-GFP preparations, respectively. Compounds were tested at 1 mM for antagonism and at 100 nM or 20 μM for agonism. These concentrations were chosen for agonism studies to match the concentrations of autoinducers used in our experiments. For antagonism studies, we used the EC95 concentration for each receptor. GFP was measured on an Envision plate reader.
# LasR = target: T2, LasR (Pseudomonas aeruginosa, UniProt P25084); experiment: LasR-GFP assay (rsaL-gfp reporter in recombinant E. coli); type: cell-based, P. aeruginosa
# T2 construct: expressed in transfected cells; host or cells: E. coli BL21-Gold (DE3) carrying pET23b-lasR
# T2 sequence (P25084 whole entry): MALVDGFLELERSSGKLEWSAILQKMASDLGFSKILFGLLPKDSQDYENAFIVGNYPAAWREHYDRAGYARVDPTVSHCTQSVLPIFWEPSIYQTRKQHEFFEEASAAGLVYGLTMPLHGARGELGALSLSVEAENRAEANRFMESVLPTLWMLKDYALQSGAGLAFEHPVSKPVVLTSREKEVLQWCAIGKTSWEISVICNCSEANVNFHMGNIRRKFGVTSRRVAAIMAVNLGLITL
# Procedure: as §2, §3
# [3] = system: wild-type P. aeruginosa PA14; experiment: Microarray gene expression analysis, wild-type strain; type: cell-based; conditions: WT P. aeruginosa PA14, 100 μM
# Procedure: Methods. Overnight P. aeruginosa PA14 cultures were back-diluted 1:1000 into 5 mL of fresh LB. 100 μM mBTL, or an equivalent amount of DMSO, was added to cultures which were grown aerobically with shaking at 37° C. for 17 hr. 9 ODs of cells were harvested for each treatment. Lysozyme (1 mg/mL in TE buffer) (Sigma) was added for 10 min at room temperature. Total RNA was prepared using the RNeasy Midi Kit (Qiagen). RNA was treated with RNase-Free DNaseI (Ambion) for 1 hr at 37° C., inactivated using DNaseI Inactivation Reagent Resin (Ambion), and re-purified using the RNeasy Mini Kit. […] The library was purified using the PCR Purification kit (Qiagen) and assessed for Cy3 and Cy5 incorporation using a Nanodrop ND-1000 Spectrophotometer (Nanodrop Technologies). […] Microarrays were scanned using an Agilent G2505C scanner and analyzed using Agilent Feature Extract software version 9.5. Resulting microarray intensity data were submitted to the PUMA Database (http://puma.princeton.edu) for archiving and analyzed using Matlab R2013a.
# Overnight P. aeruginosa PA14 cultures were back-diluted 1:1000 into 5 mL of fresh LB. […] The library was purified using the PCR Purification kit (Qiagen) and assessed for Cy3 and Cy5 incorporation using a Nanodrop ND-1000 Spectrophotometer (Nanodrop Technologies). […]
# [4] = system: ΔlasRrhlR strain of P. aeruginosa; experiment: Pyocyanin production in mutant lacking LasR and RhlR; type: cell-based; conditions: treated vs DMSO
# Procedure: as §1
# The compounds were designed to be AHL analogs that bind and antagonize LasR and/or RhlR. If either receptor were the target, a ΔlasRrhlR strain of P. aeruginosa would not be expected to have a further reduction of pyocyanin when treated with an inhibitor.
Molecule,killing of A549 cells by P. aeruginosa [1],inhibition of pyocyanin production (in words) [2],"RhlR agonism (in words) (RhlR; 20 μM, no autoinducer)",inhibition of RhlR-directed transcription in E. coli (in words) (RhlR; tested at 1 mM with C4-HSL),"LasR agonism (in words) (LasR; 100 nM, no autoinducer)",inhibition of LasR-directed transcription in E. coli (in words) (LasR; tested at 1 mM with 3OC12-HSL),effect on pyocyanin biosynthetic genes (microarray) [3],Efficacy (%) ([2]; listed as Table 3 entry 18),Efficacy (%) ([2]; listed as drawing 76),pyocyanin levels in strain lacking LasR and RhlR [4]
chlorolactone [CL],does not attenuate killing of A549 lung cells,Neither CL nor CTL inhibited pyocyanin production; also recorded: no in vivo inhibition of pyocyanin production,does not agonize either receptor,more potent inhibitor of both LasR- and RhlR-directed transcription in E. coli than is mBTL; also recorded: inhibits LasR- and RhlR-controlled transcription,does not agonize either receptor,more potent inhibitor of both LasR- and RhlR-directed transcription in E. coli than is mBTL; also recorded: inhibits LasR- and RhlR-controlled transcription,–,–,–,–
"O=C(COc1cccc(Br)c1)Nc1ccnc(C(F)(F)F)c1 [compound 16, 4-amino-2-trifluoromethylpyridine-C6-3-bromophenoxyhybrid]",–,highly effective at blocking pyocyanin production,–,–,–,–,none of the pyocyanin biosynthetic genes are impacted,99,99 ± 0.3,pyocyanin levels are further reduced
